Data on 2 compounds can be found in patent US7608282B2, “Transdermal granisetron” (Strakan International Limited, priority 2003, dated 2009).

Each structure is given as a SMILES string. Where a name gives a salt, the structure may show the parent alone.

Data set [1] relates to post-operative nausea and vomiting. The note with it: doses as low as 0.1 mg; cited from earlier work.
For data set [2] the following is noted: single administration of a 1 mg tablet, human volunteers; cited from earlier work.
Data set [3] relates to delayed emesis in cancer patients. The experiment in a line: continual IV infusion of granisetron in cancer patients, delayed emesis (Kalaycio et al.). It counts as in vivo, human. As to conditions: continual IV infusion at 40 μg/h. The text has this: The minimum therapeutic plasma level required for efficacious use of any drug is ideally assessed by titrated, prolonged IV infusion studies coupled to clinical response in patients.

For data set [4] the test system is unchanged. As to conditions: continual IV infusion at 40 μg/h; cited from earlier work.
The conditions of data set [5]: cited from earlier work.
The conditions of data set [6]: acrylic adhesives, WO98/53815; cited from earlier work.
Setting [7] is: continual twice daily dosing of 1 mg in cancer patients.

The Cmax is the highest concentration seen after dosing. By clearance is commonly meant the volume of plasma or blood freed of the substance per unit of time. `CN1C2CCCC1CC(NC(=O)c1nn(C)c3ccccc13)C2` (stereo not drawn) [granisetron, N-endo-9-methyl-9-azabicyclo[3.3.1]non-3-yl-1-methylindazole-3-carboxamide hydrochloride]: the “prevention of post-operative nausea and vomiting” value in data set [1] was “effective”. Besides, the Cmax in data set [2] was 3.6 ng/mL. Moreover, the plasma level maintained result in data set [3] was “approximately 1.5 ng/ml”. Besides, the “effect on delayed emesis” value in data set [4] is recorded as “alleviate delayed emesis”. In data set [5] (setting [7]), the “average peak plasma levels” value was 6 ng/mL and the clearance is 8.67 mL/min/kg. Further, in data set [5] (oral granisetron, population not given), the Tmax entry was “approximately 2 hours”.
With `CN1[C@@H]2CC[C@H]1C[C@@H](OC(=O)c1c[nH]c3ccccc13)C2` [tropisetron], the “stability in adhesives containing nucleophilic (hydroxyl) moieties” value in data set [6] was “unstable”.
